# Assay results as given in patent US6638726B1, “Screening methods for compounds useful in the treatment of polycystic kidney disease” (Mount Sinai School of Medicine of New York University, priority 2000, dated 2003).
# Test system: ADPKD cells
# Test: modified Boyden chamber motility assay
# Type: cell-based, human
# Details: cells treated for 2 days with 10 mM LiCl, migration through 8 μM pores, 1%-5% FBS gradient, fluorescent microplate quantification, compared with NHCT and NHTAL controls
# Description: To assay for cell motility a number of different assays may be used, including but not limited to, standard migratory assays on slides or using modified Boyden chambers. Such assay systems are described in further detail in a working example of the present specification (See, Example 7).
# Using a modified Boyden chamber motility assay human renal epithelial cells and ADPKD cells were plated (5000 cells/membrane) in the upper chamber and allowed to migrate through 8 μM pores for 0-15 hours in response to a 1%-5% FBS gradient. All primary and differentiated conditionally immortalized cell types migrate in a a time-dependent fashion but more normal adult collecting tubule (NHCT) and thick ascending limb (NHTAL) cells appeared in the lower chamber than ADPKD epithelia, 975±10 (NHCT), 1060±(NHTAL) versus 426±20 (ADPKD). The effect of lithium on renal epithelial cell motility was assessed. Calcein-AM (Goldberg, A. Fluorescent Blocking Membrane Enhances Analyses of Cell-Based Assay. Becton Dickinson Techniques Bulletin #429) labeled cells were treated for 2 days±10 mM LICL and then plated onto membranes as described above.
compound,measurement,setting,value
"[Cl-].[Li+] [LiCl, lithium chloride]",motility of ADPKD cells,,significantly increased the motility of ADPKD cells
same,motility of ADPKD cells,listed as Lithium,increases the motility of ADPKD cells to the level observed for NHCT (CT) cells
same,motility of ADPKD cells,listed as lithium,decreased epithelial cell motility can be reversed
same,motility of ADPKD cells,listed as lithium chloride,increase the motility of ADPKD cells to almost normal levels
